Assay results from ChEMBL document CHEMBL4715753, “Bridging computational modeling with amino acid replacements to investigate GHS-R1a-peptidomimetic recognition” (Eur J Med Chem, 2016).

Target: Growth hormone secretagogue receptor type 1 (Homo sapiens, UniProt Q92847)
Assay: Displacement of [125I-His9]-ghrelin from GHS-R1a (unknown origin) expressed in human HEK293 cells incubated for 20 mins by gamma scintillation counting method
Format: cell-based

Chain of Growth hormone secretagogue receptor type 1 (Q92847 whole entry): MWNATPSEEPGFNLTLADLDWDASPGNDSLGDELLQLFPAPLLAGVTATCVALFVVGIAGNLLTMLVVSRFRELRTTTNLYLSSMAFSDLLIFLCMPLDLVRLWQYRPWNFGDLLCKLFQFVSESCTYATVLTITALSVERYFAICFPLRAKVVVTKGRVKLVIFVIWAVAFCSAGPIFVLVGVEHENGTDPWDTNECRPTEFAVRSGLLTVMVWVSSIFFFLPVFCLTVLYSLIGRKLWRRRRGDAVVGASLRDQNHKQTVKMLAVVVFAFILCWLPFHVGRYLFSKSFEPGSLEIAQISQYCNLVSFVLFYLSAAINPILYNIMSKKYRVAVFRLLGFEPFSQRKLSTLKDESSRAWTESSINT

SMILES	IC50 [nM]
C[C@H](NC(=O)C1CCNCC1)C(=O)N[C@H](Cc1ccc2ccccc2c1)C(=O)N[C@@H](Cc1ccccc1)C(=O)N[C@@H](CCCCN)C(N)=O	> 10000
NCCCC[C@H](NC(=O)[C@H](Cc1ccncc1)NC(=O)[C@@H](Cc1ccc2ccccc2c1)NC(=O)[C@@H](Cc1ccc2ccccc2c1)NC(=O)C1CCNCC1)C(N)=O	25
